Test results from patent US20240101570A1 (AMGEN INC., priority 2020, published 2024).

Tests used:
HCT116 MTAP null cells = assay: HCT116 MTAP null cell proliferation / viability (CellTiter-Glo, 6 days); assay type: cell-based; details: HCT116-MTAP null, 144 h, HCT116 MTAP null cells, 6 days, CellTiter-Glo; read-out: HCT-116 MTAP null IC50
Method in brief: (§1)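 CellTiter-Glo luminescence, 6-day exposure, RPMI 1640 + 10% FBS. Dosing: 1:3 series (8-9 pts, top 1 or 10 μM) or 1:2 series (22 pts, top 10 or 50 μM), DMSO control. IC50 = 50% of control via curve fit.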

HCT116 WT cells = assay: HCT116 WT cell proliferation / viability (CellTiter-Glo, 6 days); assay type: cell-based; details: Homo sapiens, HCT-116, 144 h, HCT116 WT cells, 6 days, CellTiter-Glo; read-out: HCT-116 WT IC50
Method in brief: as §1

| SMILES | IC50 (HCT116 MTAP null cells) | IC50 (HCT116 WT cells) |
| --- | --- | --- |
| CN(Cc1ccc(S(F)(F)(F)(F)F)cc1)C(=O)c1cc2c(cc1F)nc(N)c1cnn(C)c12 [Example 575, 4-amino-7-fluoro-N,1-dimethyl-N-(4-(pentafluoro-lambda~6~- sulfanyl)benzyl)-1H-pyrazolo[4,3-c]quinoline-8-carboxamide] | 0.012 µM | 0.354 µM |
| CN(Cc1ccc(S(F)(F)(F)(F)F)cc1O)C(=O)c1cc2c3c(c(N)nc2cc1F)COC3 [Example 576, 4-amino-7-fluoro-N-(2-hydroxy-4-(pentafluoro-lambda~6~- sulfanyl)benzyl)-N-methyl-1,3-dihydrofuro[3,4-c]quinoline-8-carboxamide] | 0.107 µM | 2.08 µM |
| C[C@H](c1ccc(F)cn1)N(C)C(=O)c1cc2c(cc1Cl)nc(N)c1cnn(C)c12 [Example 593, 4-amino-7-chloro-N-((1R)-1-(5-fluoro-2-pyridinyl)ethyl)-N,1-dimethyl-1H-pyrazolo[4,3-c]quinoline-8-carboxamide] | 0.012 µM | 0.908 µM |
| CC(C)CN(Cc1ccc(C(F)(F)F)cn1)C(=O)c1ccc2nc(N)c3c(c2c1)COC3 [Example 613, 4-amino-N-(2-methylpropyl)-N-((5-(trifluoromethyl)-2-pyridinyl)methyl)-1,3-dihydrofuro[3,4-c]quinoline-8-carboxamide] | 0.023 µM | 0.761 µM |
| Cc1noc2c1c(N)nc1ccc(C(=O)N(Cc3ccc(C(F)(F)F)cn3)CC(C)C)cc12 [Example 617, 4-amino-3-methyl-N-(2-methylpropyl)-N-((5-(trifluoromethyl)-2-pyridinyl)methyl)[1,2]oxazolo[4,5-c]quinoline-8-carboxamide] | 0.245 µM | > 10 µM |
| CC(C)CN(Cc1ccc(C(F)(F)F)cn1)C(=O)c1cc2c3c(c(N)nc2cn1)COC3 [Example 620, 4-amino-N-(2-methylpropyl)-N-((5-(trifluoromethyl)-2-pyridinyl)methyl)-1,3-dihydrofuro[3,4-c][1,7]naphthyridine-8-carboxamide] | 0.077 µM | 3.56 µM |
| C[C@H](c1ncccc1F)N(Cc1ccc(Br)nn1)C(=O)c1ccc2nc(N)c3c(c2c1)CCC3 [Example 624, 4-amino-N-((6-bromo-3-pyridazinyl)methyl)-N-((1R)-1-(3-fluoro-2-pyridinyl)ethyl)-2,3-dihydro-1H-cyclopenta[c]quinoline-8-carboxamide] | 0.021 µM | 0.189 µM |
| C[C@H](c1ncccn1)N(Cc1ccc(C#N)cn1)C(=O)c1ccc2nc(N)c3ccccc3c2c1 [Example 630, 6-amino-N-((5-cyano-2-pyridinyl)methyl)-N-((1R)-1-(2-pyrimidinyl)ethyl)-2-phenanthridinecarboxamide] | 0.019 µM | 0.408 µM |
| Nc1nc2ccc(C(=O)N(Cc3ccc(C(F)(F)F)cn3)Cc3ncccn3)cc2c2cnccc12 [Example 631, 5-amino-N-(2-pyrimidinylmethyl)-N-((5-(trifluoromethyl)-2-pyridinyl)methyl)benzo[c][2,6]naphthyridine-9-carboxamide] | 0.01 µM | 0.215 µM |
| CC(C)CN(Cc1ccc(C(F)(F)F)cn1)C(=O)c1ccc2nc(N)c3ccncc3c2c1 [Example 632, 5-amino-N-(2-methylpropyl)-N-((5-(trifluoromethyl)-2-pyridinyl)methyl)benzo[c][2,6]naphthyridine-9-carboxamide] | 0.011 µM | 0.231 µM |
| Nc1nc2ccc(C(=O)N(Cc3ccc(C(F)(F)F)cn3)Cc3ncccc3F)cc2c2ccsc12 [Example 635, 4-amino-N-((3-fluoro-2-pyridinyl)methyl)-N-((5-(trifluoromethyl)-2-pyridinyl)methyl)thieno[2,3-c]quinoline-8-carboxamide] | 0.073 µM | 1.21 µM |

More lines, now with the values ahead:

| IC50 (HCT116 MTAP null cells) | IC50 (HCT116 WT cells) | SMILES |
| --- | --- | --- |
| 0.263 µM | 3.7 µM | C[C@H](c1ncccn1)N(Cc1ccc(C#N)cn1)C(=O)c1cc2c3c(c(N)nc2cn1)COC3 [Example 606, (R)-4-amino-N-((5-cyanopyridin-2-yl)methyl)-N-(1-(pyrimidin-2-yl)ethyl)-1,3-dihydrofuro[3,4-c][1,7]naphthyridine-8-carboxamide] |
| 0.154 µM | 1.37 µM | CC(C)CN(Cc1ccc(C(F)(F)F)cn1)C(=O)c1cnc2nc(N)c3c(c2c1)CCC3 [Example 607, 6-amino-N-isobutyl-N-((5-(trifluoromethyl)pyridin-2-yl)methyl)-8,9-dihydro-7H-cyclopenta[c][1,8]naphthyridine-2-carboxamide] |
| 0.006 µM | 0.135 µM | C[C@H](c1ncccn1)N(Cc1ccc(C(F)(F)F)cn1)C(=O)c1ccc2nc(N)c3c(c2c1)CCC3 [Example 610, 4-amino-N-((1R)-1-(2-pyrimidinyl)ethyl)-N-((5-(trifluoromethyl)-2-pyridinyl)methyl)-2,3-dihydro-1H-cyclopenta[c]quinoline-8-carboxamide] |
| 0.084 µM | 0.474 µM | CC(C)CN(Cc1ccc(C(F)(F)F)cn1)C(=O)c1ccc2nc(N)c3c(c2c1)CCC3 [Example 611, 4-amino-N-(2-methylpropyl)-N-((5-(trifluoromethyl)-2-pyridinyl)methyl)-2,3-dihydro-1H-cyclopenta[c]quinoline-8-carboxamide] |
| 0.176 µM | 3.06 µM | CC(C)CN(Cc1ccc(C(F)(F)F)cn1)C(=O)c1cnc2nc(N)c3c(c2c1)COC3 [Example 612, 4-amino-N-(2-methylpropyl)-N-((5-(trifluoromethyl)-2-pyridinyl)methyl)-1,3-dihydrofuro[3,4-c][1,8]naphthyridine-8-carboxamide] |
| 0.042 µM | 0.255 µM | C[C@H](c1ncccn1)N(Cc1ccc(C(F)(F)F)cn1)C(=O)c1cnc2nc(N)c3c(c2c1)COC3 [Example 614, 4-amino-N-((1R)-1-(2-pyrimidinyl)ethyl)-N-((5-(trifluoromethyl)-2-pyridinyl)methyl)-1,3-dihydrofuro[3,4-c][1,8]naphthyridine-8-carboxamide] |
| 0.019 µM | 0.271 µM | C[C@H](c1ncccn1)N(Cc1ccc(C#N)cn1)C(=O)c1ccc2nc(N)c3c(c2c1)CCC3 [Example 615, 4-amino-N-((5-cyano-2-pyridinyl)methyl)-N-((1R)-1-(2-pyrimidinyl)ethyl)-2,3-dihydro-1H-cyclopenta[c]quinoline-8-carboxamide] |
| 0.108 µM | 1.23 µM | C[C@H](c1ncccn1)N(Cc1ccc(C(F)(F)F)cn1)C(=O)c1cc2c3c(c(N)nc2cn1)COC3 [Example 621, 4-amino-N-((1R)-1-(2-pyrimidinyl)ethyl)-N-((5-(trifluoromethyl)-2-pyridinyl)methyl)-1,3-dihydrofuro[3,4-c][1,7]naphthyridine-8-carboxamide] |
| 0.011 µM | 0.156 µM | C[C@H](c1ncccn1)N(Cc1ccc(Cl)cn1)C(=O)c1ccc2nc(N)c3c(c2c1)CCC3 [Example 622, 4-amino-N-((5-chloro-2-pyridinyl)methyl)-N-((1R)-1-(2-pyrimidinyl)ethyl)-2,3-dihydro-1H-cyclopenta[c]quinoline-8-carboxamide] |
| 0.015 µM | 0.148 µM | C[C@H](c1ncccn1)N(Cc1ccc(C(F)F)cn1)C(=O)c1ccc2nc(N)c3c(c2c1)CCC3 [Example 623, 4-amino-N-((5-(difluoromethyl)-2-pyridinyl)methyl)-N-((1R)-1-(2-pyrimidinyl)ethyl)-2,3-dihydro-1H-cyclopenta[c]quinoline-8-carboxamide] |
| 0.13 µM | 1.59 µM | C[C@H](c1ncccn1)N(Cc1ccc(C(F)F)cn1)C(=O)c1cnc2nc(N)c3c(c2c1)CCC3 [Example 625, 6-amino-N-((5-(difluoromethyl)-2-pyridinyl)methyl)-N-((1R)-1-(2-pyrimidinyl)ethyl)-8,9-dihydro-7H-cyclopenta[c][1,8]naphthyridine-2-carboxamide] |
| 0.043 µM | 0.444 µM | C[C@H](c1ncccn1)N(Cc1ccc(C(F)(F)F)cn1)C(=O)c1cnc2nc(N)c3c(c2c1)CCC3 [Example 626, 6-amino-N-((1R)-1-(2-pyrimidinyl)ethyl)-N-((5-(trifluoromethyl)-2-pyridinyl)methyl)-8,9-dihydro-7H-cyclopenta[c][1,8]naphthyridine-2-carboxamide] |
| 0.045 µM | 0.583 µM | C[C@H](c1ncccn1)N(Cc1ccc(Cl)cn1)C(=O)c1cnc2nc(N)c3c(c2c1)CCC3 [Example 627, 6-amino-N-((5-chloro-2-pyridinyl)methyl)-N-((1R)-1-(2-pyrimidinyl)ethyl)-8,9-dihydro-7H-cyclopenta[c][1,8]naphthyridine-2-carboxamide] |
| 0.119 µM | 1.19 µM | C[C@H](c1ncccc1F)N(Cc1ccc(C(F)(F)F)nn1)C(=O)c1cnc2nc(N)c3c(c2c1)CCC3 [Example 628, 6-amino-N-((1R)-1-(3-fluoro-2-pyridinyl)ethyl)-N-((6-(trifluoromethyl)-3-pyridazinyl)methyl)-8,9-dihydro-7H-cyclopenta[c][1,8]naphthyridine-2-carboxamide] |
| 0.016 µM | 0.398 µM | C[C@H](c1ncccn1)N(Cc1ccc(C(F)(F)F)cn1)C(=O)c1ccc2nc(N)c3ccccc3c2c1 [Example 629, 6-amino-N-((1R)-1-(2-pyrimidinyl)ethyl)-N-((5-(trifluoromethyl)-2-pyridinyl)methyl)-2-phenanthridinecarboxamide] |
| 0.013 µM | 0.071 µM | C[C@H](c1ncccn1)N(Cc1ccc(C(F)(F)F)cn1)C(=O)c1ccc2nc(N)c3ccncc3c2c1 [Example 633, 5-amino-N-((1R)-1-(2-pyrimidinyl)ethyl)-N-((5-(trifluoromethyl)-2-pyridinyl)methyl)benzo[c][2,6]naphthyridine-9-carboxamide] |
